Source: paper doi:10.1101/2020.11.19.390633v1 (biorxiv, 2020)

Biological target: murine wtIDH1 (KPC cells) (Mus musculus, UniProt O88844)
Assay: cell-based IDH activity assay, NADPH synthesis, after IDH2 siRNA
Details: KPC murine cells, […] MgSO4, […] h; allosteric

Sequence of murine wtIDH1 (KPC cells) (O88844 2-414): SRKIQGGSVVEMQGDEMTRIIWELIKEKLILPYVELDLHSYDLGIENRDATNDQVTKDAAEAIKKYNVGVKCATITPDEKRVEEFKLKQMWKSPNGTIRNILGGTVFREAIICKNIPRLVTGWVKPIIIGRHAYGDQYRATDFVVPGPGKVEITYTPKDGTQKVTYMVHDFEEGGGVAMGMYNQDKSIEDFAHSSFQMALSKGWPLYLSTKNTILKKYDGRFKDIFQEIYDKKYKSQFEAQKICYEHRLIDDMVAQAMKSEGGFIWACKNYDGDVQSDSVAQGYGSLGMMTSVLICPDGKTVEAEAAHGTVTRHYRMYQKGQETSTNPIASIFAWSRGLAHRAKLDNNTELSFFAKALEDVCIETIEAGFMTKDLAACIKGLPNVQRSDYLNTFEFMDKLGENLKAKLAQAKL

Structure (SMILES): N#Cc1ccnc(N2C(=O)CC[C@H]2C(=O)N(c2cncc(F)c2)[C@H](C(=O)NC2CC(F)(F)C2)c2ccccc2Cl)c1 [AG-120]
- EC50: 110 ± 2 nM
